US6486209B2, “Use for 1,3-propanediol derivatives” (Novartis AG, priority 1996, dated 2002)

Tests used:
[1] = system: carotid artery allograft (DA donors, Lewis recipients); test: Prevention of graft vessel disease: carotid artery transplantation; format: in vivo, rat; conditions: 0.1 to 10 mg/kg alone or in combination with Cyclosporin A, 8 weeks, osmotic minipump s.c. or oral
Method: A. Prevention of Graft Vessel Disease
Inbred rat strains DA (RT1^a, donors) and Lewis (RT1^1, recipients of allografts), weighing between 200 and 350 grams are used. The animals are allowed unrestricted access to food and water before and after the operation.
Carotid artery transplantation:
The rats are anaesthetised with isofluorane (Abbott), (4-5% for induction, 1.5-2% for maintenance) and 300 μg atropin sulphate is injected subcutaneously following the induction. The left carotid artery is dissected free. The artery is clamped proximally and distally and a segment of about 7-10 mm is removed. The gap is bridged by an allograft which had also been subjected to 45 min cold ischemia. Ethilon 10/o sutures are used. Finally the skin is closed with 4/0 sutures. If needed, an Alzet osmotic minipump (Alza Corp. Palo Alto, Calif.) is then implanted subcutaneously over the back (alternatively the animals are treated orally).
The rats are subject to one of the following treatments: A compound of formula I alone at the doses of 0.1 to 10 mg/kg, or in combination with Cyclosporin A at the dose of 0.03, 0.3, or 1 mg.kg^−1·day^−1 is administered for 8 weeks either by using Alzet osmotic minipumps implanted subcutaneously or alternatively by oral administration. […]

[2] = system: Syrian hamster heart xenograft in rat; test: In vivo heart xenotransplantation (hamster-to-rat); conditions: 5-30 mg/kg/day orally
Excerpt: B. In vivo heart xenotransplantation (hamster-to-rat)
The hamster-into-rat xenograft combination is a so-called difficult concordant combination. […] This is visualized in histology by destruction of blood vessels, exsudation and extravasation of erythrocytes, and influx by polymorphonuclear granulocytes; often there are signs of hemorrhage and thrombosis. Once this rejection has been overcome by effective inhibition of antibody synthesis or complement inactivation, a cellular rejection can emerge later on. This is visualized in histology by influx of mononuclear cells, including lymphocytes, lymphoblastoid cells, and macrophages, and destruction of the myocyte parenchyma. The inhibition of cellular rejection requires more immuno-suppression than that of allografts. Congenitally athymic (rnu/rnu) rats lack a competent (thymus-dependent) cellular immune system and generally are unable to reject allografts. Such animals do reject a hamster xenograft within 3-4 days in a similar fashion as euthymic rats, indicative that (at least part of) anti-hamster antibody synthesis in rats occurs following a thymus-independent B-cell response. […]
The graft is monitored daily by palpation of the abdomen. […] Animals are subjected to autopsy; apart from the graft, weight and histology is assessed for thymus, spleen, liver, seminal vesicles and testes. […]

## CCCCCCCCc1ccc(CCC(N)(CO)CO)cc1 [Compound A, 2-amino-2-[2-(4-octylphenyl)ethyl]-1,3-propanediol]
[1]
  graft infiltration: significantly inhibit
  neointima formation: significantly inhibit
[2]; athymic recipients
  graft survival: prolonged graft survival
[2]; euthymic recipients
  graft survival: prolonged graft survival
